This is an account of results in patent publication US8163511B2, “Methods for the identification of LRRK2 interacting molecules” (CellZome AG, priority 2006, dated 2012).

The target in this assay is T1, LRRK2 (Mus musculus, UniProt Q5S006).
T1 construct: from tissue; host or cells: mouse brain
As to the kind of experiment: Drug pulldown with immobilized indol ligand 91 and identification of LRRK2 by LC-MS/MS. As to conditions: ligand covalently attached to Sepharose beads, mouse brain lysate, SDS elution, SDS-PAGE, twelve LRRK2 peptides identified. It counts as binding. The method, then: Proteins binding to immobilized indol ligand 91 were identified using a chemical proteomics procedure. Binding proteins were purified on a resin to which indol ligand 91 was covalently attached. Bound proteins were eluted and subsequently separated by SDS-Polyacrylamide gel elecrophoresis (see FIG. 2), suitable gel bands were cut out and proteins were analyzed by LC-MS/MS mass spectrometry.
NHS-activated Sepharose 4 Fast Flow (Amersham Biosciences, 17-0906-01) was equilibrated with anhydrous DMSO (Dimethylsulfoxid, Fluka, 41648, H20<=0.005%). 1 ml of settled beads were placed in a 15 ml Falcon tube, compound stock solution (usually 100 mM in DMF or DMSO) was added (final conc. 0.2-2 μmol/ml beads) as well as 15 μl of TEA. Beads were incubated at room temperature in darkness on an end-over-end shaker (Roto Shake Genie, Scientific Industries Inc.) for 16-20 hours. Coupling efficiency was determined by HPLC. […]
Mouse brain tissue was homogenized in a Potter S homogenizer (5 ml per brain): 50 mM Tris-HCl, 1% CHAPSO, 5% glycerol, 150 mM NaCl, 1.5 mM MgCl2, 25 mM NaF, 1 mM sodium vanadate, 1 mM DTT, pH 7.5. […] The supernatant was transferred again to a fresh 50 ml falcon tube, the protein concentration was determined by a Bradford assay (BioRad) and samples containing 50 mg of protein per aliquot were prepared. […]

T1 sequence (Q5S006 whole entry V777I/K863N/C925Y/E1011G/E1190G/E1882G/Q2178N): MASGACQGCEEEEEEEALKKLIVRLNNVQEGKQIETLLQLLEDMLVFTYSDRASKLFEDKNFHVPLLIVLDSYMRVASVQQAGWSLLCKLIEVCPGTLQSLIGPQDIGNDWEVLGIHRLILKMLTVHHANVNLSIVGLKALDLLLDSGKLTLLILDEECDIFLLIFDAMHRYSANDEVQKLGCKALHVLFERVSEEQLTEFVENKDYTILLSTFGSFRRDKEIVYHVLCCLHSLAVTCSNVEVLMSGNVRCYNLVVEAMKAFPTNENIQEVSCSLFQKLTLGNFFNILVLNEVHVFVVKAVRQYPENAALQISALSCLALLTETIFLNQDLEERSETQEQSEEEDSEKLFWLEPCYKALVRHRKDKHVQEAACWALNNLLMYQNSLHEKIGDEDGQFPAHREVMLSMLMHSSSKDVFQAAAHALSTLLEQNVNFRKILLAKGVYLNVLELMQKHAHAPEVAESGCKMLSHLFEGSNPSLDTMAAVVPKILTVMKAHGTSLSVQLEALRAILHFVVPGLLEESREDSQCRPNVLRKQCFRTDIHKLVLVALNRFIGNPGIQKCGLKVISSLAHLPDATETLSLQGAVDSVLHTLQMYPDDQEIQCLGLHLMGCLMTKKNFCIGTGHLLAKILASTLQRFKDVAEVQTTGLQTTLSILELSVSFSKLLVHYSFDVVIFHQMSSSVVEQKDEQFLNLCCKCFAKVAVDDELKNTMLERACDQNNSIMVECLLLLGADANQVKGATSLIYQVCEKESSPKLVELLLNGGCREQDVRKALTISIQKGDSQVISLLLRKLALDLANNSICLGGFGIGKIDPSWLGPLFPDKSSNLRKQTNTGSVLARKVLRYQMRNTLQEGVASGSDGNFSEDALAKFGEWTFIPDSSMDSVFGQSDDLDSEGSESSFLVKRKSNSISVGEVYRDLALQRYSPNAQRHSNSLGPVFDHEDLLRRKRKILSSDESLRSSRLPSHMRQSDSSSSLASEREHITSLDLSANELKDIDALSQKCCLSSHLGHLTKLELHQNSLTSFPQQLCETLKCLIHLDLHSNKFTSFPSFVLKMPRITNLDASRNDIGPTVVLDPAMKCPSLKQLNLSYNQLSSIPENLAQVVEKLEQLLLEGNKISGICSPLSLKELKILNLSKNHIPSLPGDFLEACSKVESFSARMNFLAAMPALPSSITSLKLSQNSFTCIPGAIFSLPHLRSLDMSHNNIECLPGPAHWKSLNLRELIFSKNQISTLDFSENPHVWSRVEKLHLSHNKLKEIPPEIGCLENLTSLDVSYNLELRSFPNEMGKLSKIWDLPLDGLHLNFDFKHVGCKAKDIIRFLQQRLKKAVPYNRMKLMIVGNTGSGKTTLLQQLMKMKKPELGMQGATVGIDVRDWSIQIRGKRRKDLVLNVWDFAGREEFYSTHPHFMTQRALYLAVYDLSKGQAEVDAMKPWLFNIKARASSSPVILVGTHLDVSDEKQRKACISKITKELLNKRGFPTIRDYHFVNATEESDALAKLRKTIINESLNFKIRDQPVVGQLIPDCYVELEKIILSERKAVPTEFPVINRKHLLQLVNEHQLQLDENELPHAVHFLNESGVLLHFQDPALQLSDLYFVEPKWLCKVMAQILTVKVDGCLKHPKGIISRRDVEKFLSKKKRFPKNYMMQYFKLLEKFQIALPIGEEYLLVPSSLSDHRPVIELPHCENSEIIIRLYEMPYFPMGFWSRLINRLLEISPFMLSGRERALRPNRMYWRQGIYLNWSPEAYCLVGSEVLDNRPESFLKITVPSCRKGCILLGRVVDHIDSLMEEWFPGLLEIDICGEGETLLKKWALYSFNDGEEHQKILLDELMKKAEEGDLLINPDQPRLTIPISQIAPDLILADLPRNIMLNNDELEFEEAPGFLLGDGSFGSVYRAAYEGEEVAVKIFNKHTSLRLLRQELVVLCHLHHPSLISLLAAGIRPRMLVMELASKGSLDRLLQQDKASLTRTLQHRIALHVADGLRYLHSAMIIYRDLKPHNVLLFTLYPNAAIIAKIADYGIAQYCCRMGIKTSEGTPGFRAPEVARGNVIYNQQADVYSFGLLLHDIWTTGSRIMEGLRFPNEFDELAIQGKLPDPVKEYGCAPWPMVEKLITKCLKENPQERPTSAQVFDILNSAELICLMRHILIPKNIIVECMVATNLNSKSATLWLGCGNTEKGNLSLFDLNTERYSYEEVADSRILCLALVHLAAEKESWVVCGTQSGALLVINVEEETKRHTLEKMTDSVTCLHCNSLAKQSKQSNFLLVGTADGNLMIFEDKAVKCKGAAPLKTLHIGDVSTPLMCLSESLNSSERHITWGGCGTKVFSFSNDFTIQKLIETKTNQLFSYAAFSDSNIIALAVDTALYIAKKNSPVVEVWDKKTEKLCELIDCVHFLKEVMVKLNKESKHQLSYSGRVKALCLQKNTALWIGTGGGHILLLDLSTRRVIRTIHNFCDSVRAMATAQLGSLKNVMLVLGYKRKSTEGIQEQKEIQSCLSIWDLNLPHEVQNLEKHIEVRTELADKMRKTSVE

Take `Cc1[nH]c(/C=C2\C(=O)Nc3ccc(F)cc32)c(C)c1C(=O)NCCCN` [indol ligand 91, 5-[5-Fluoro-2-oxo-1,2-dihydro-indol-(3Z)-ylidenemethyl]-2,4-dimethyl-1H-pyrrole-3-carboxylic acid (3-amino-propyl)-amide]: the “enrichment/identification of LRRK2 bound to the immobilized ligand” value was “can be used to enrich and characterize LRRK2 from mouse brain lysates”.
